Source: US7772228B2, “Method for treatment of bacterial infections with once or twice-weekly administered rifalazil” (priority 1998, dated 2010)
Where two headings read alike, the source gives them in different places.

Assays:
[1] = tested on: Chlamydia pneumoniae strain TW-l 83; assay: Sensitivity testing in cell cultures; assay type: cell-based
Experimental: Sensitivity testing was conducted in cell cultures against Chlamydia pneumoniae strain TW-l 83 using rifalazil, clanthromycin, or azithromycin. […] The in vivo testing of rifalazil used a mouse model infected with Chlamydia pneumoniae strain AR-39. […] All control animals remained infected.

[2] = human, in vivo
Experimental: The fourth trial (004) was a also a randomized, rising, double-blind, multiple-dose, placebo-controlled study. In this trial, weekly doses of placebo or rifalazil (25 mg or 50 mg) were administered to the subjects for a total of 4 weeks. All subjects received the dose within 30 minutes after eating a standardized breakfast and were monitored for an additional 14 days after the last dose. Four subjects were randomized to placebo, six subjects to 25 mg rifalazil, and eight subjects to 50 mg rifalazil.
Laboratory testing regimen for 003 and 004 trials was the same as for 001 and 002 trials.
Results obtained in 004 clinical trial where the healthy volunteers received only one dose a week for four weeks are seen in FIGS. 8-10.

[3] = Clinical trial 005, rifalazil concentration in plasma of tuberculosis patients; assay type: in vivo, human; details: for maximum concentration of the drug in plasma: six hours; for concentration at 3 h / concentration at 11 day / concentration at 15 day / concentration at 0 h / concentration at 2 h / concentration at 5 h / concentration at 9 h / concentration at 12 h / concentration at 24 h / concentration at 48 h / concentration at 72 h: human, plasma; for concentration at 3 h: three hours; for concentration at 11 day: Day 11; for concentration at 15 day: Day 15; for concentration at 0 h: Hour 0; for concentration at 2 h: Hour 2; for concentration at 5 h: Hour 5; for concentration at 9 h: Hour 9; for concentration at 12 h: Hour 12; for concentration at 24 h: Hour 24; for concentration at 48 h: Hour 48; for concentration at 72 h: Hour 72
Experimental: Definite diagnosis and evaluation of treatment efficacy requires direct examination of sputum for the presence of M. tuberculosis. The extent of M. tuberculosis infection is determined by number of bacteria able to form colonies and is expressed as colony forming units. When the number of colony forming units (CFU) is high, the infection is unhindered. When the CFU decreases, the number of active M. tuberculosis bacteria decreases. The CFU, typically expressed as Log10, have therefore important diagnostic and treatment evaluative value.
Table 21 summarizes the plasma concentrations data of rifalazil measured in patients that received rifalazil at zero hour. The data are separated into 2 groups and are identified as INH+10 mg rifalazil (Group 3) and INH+25 mg rifalazil (Group 4). The concentration of rifalazil in plasma is presented in ng/mL and are shown as a timecourse (hours and days) wherein values were determined at several times over the two weeks of the study.

[4] = 10 mg, INH + 10 mg KRM, read-out: Rifalazil Concentration in Plasma, Max
[5] = 10 mg, INH + 10 mg KRM, read-out: Rifalazil Concentration in Plasma, Med
[6] = 10 mg, INH + 10 mg KRM, read-out: Rifalazil Concentration in Plasma, Min
[7] = 25 mg, INH + 25 mg KRM, read-out: Rifalazil Concentration in Plasma, Max
[8] = 25 mg, INH + 25 mg KRM, read-out: Rifalazil Concentration in Plasma, Mean
[9] = 25 mg, INH + 25 mg KRM, read-out: Rifalazil Concentration in Plasma, Med
[10] = 25 mg, INH + 25 mg KRM, read-out: Rifalazil Concentration in Plasma, Min
[11] = INH + 10 mg KRM, read-out: Rifalazil Concentration in Plasma, Mean
[12] = INH + 10 mg KRM, read-out: Rifalazil Concentration in Plasma, Max
[13] = INH + 10 mg KRM, read-out: Rifalazil Concentration in Plasma, Med
[14] = INH + 10 mg KRM, read-out: Rifalazil Concentration in Plasma, Min
[15] = INH + 25 mg KRM, read-out: Rifalazil Concentration in Plasma, Max
[16] = INH + 25 mg KRM, read-out: Rifalazil Concentration in Plasma, Mean
[17] = INH + 25 mg KRM, read-out: Rifalazil Concentration in Plasma, Med
[18] = INH + 25 mg KRM, read-out: Rifalazil Concentration in Plasma, Min

CO[C@H]1/C=C/O[C@@]2(C)Oc3c(C)c(O)c4c(=O)c(c5oc6cc(N7CCN(CC(C)C)CC7)cc(O)c6nc-5c4c3C2=O)NC(=O)/C(C)=C\C=C\[C@H](C)[C@H](O)[C@@H](C)[C@@H](O)[C@@H](C)[C@H](OC(C)=O)[C@@H]1C [Rifalazil, 3′-hydroxy-5′-(4-isobutyl-1-piperazinyl)benzoxasinorifamycin]
fold more potent than clanthromycin [1]: 300 fold | fold more potent than erythromycin [1]: 1500 fold | time for hematologic parameters to return to normal after the last dose [2]: ≤ 14 days | maximum concentration of the drug in plasma ([3]; 10 mg rifalazil): 12.68 ng/mL | maximum concentration of the drug in plasma ([3]; 25 mg rifalazil): 28.47 ng/mL | drug in plasma ([3]; 72 hours (3 days)): still measurable amount of drug in plasma | Rifalazil Concentration in Plasma, Max ([3]; INH + 10 mg KRM, Day 4 M-0): 0 ng/mL | Rifalazil Concentration in Plasma, Mean ([3]; INH + 10 mg KRM, Day 4 M-0): 0 ng/mL | Rifalazil Concentration in Plasma, Med ([3]; INH + 10 mg KRM, Day 4 M-0): 0 ng/mL | Rifalazil Concentration in Plasma, Min ([3]; INH + 10 mg KRM, Day 4 M-0): 0 ng/mL | Rifalazil Concentration in Plasma, Max ([3]; INH + 10 mg KRM, Day 8 M-4): 21.9 ng/mL | Rifalazil Concentration in Plasma, Mean ([3]; INH + 10 mg KRM, Day 8 M-4): 18.31 ng/mL | Rifalazil Concentration in Plasma, Min ([3]; INH + 10 mg KRM, Day 8 M-4): 9.7 ng/mL | Rifalazil Concentration in Plasma, Max ([3]; INH + 25 mg KRM, Day 4 M-0): 0 ng/mL | Rifalazil Concentration in Plasma, Mean ([3]; INH + 25 mg KRM, Day 4 M-0): 0 ng/mL | Rifalazil Concentration in Plasma, Med ([3]; INH + 25 mg KRM, Day 4 M-0): 0 ng/mL | Rifalazil Concentration in Plasma, Min ([3]; INH + 25 mg KRM, Day 4 M-0): 0 ng/mL | Rifalazil Concentration in Plasma, Max ([3]; INH + 25 mg KRM, Day 8 M-4): 41.0 ng/mL | Rifalazil Concentration in Plasma, Mean ([3]; INH + 25 mg KRM, Day 8 M-4): 29.02 ng/mL | Rifalazil Concentration in Plasma, Med ([3]; INH + 25 mg KRM, Day 8 M-4): 28.5 ng/mL | Rifalazil Concentration in Plasma, Min ([3]; INH + 25 mg KRM, Day 8 M-4): 11.7 ng/mL | concentration at 3 h ([3]; 10 mg, 10 mg of rifalazil): 9.7 ng/mL | concentration at 11 day [3, 4]: 2.5 ng/mL | concentration at 11 day [3, 5]: 1.4 ng/mL | concentration at 11 day [3, 6]: 2 ng/mL | concentration at 15 day [3, 4]: 0 ng/mL | concentration at 15 day [3, 5]: 3 ng/mL | concentration at 15 day [3, 6]: 0 ng/mL | concentration at 3 h ([3]; 25 mg, 25 mg rifalazil): 15.9 ng/mL | concentration at 11 day [3, 7]: 9.1 ng/mL | concentration at 11 day [3, 8]: 4.12 ng/mL | concentration at 11 day [3, 9]: 3.3 ng/mL | concentration at 11 day [3, 10]: 2.2 ng/mL | concentration at 15 day [3, 7]: 3.4 ng/mL | concentration at 15 day [3, 8]: 0.95 ng/mL | concentration at 15 day [3, 9]: 0 ng/mL | concentration at 15 day [3, 10]: 0 ng/mL | concentration at 11 day [3, 11]: 2.4 ng/mL | concentration at 15 day [3, 11]: 3 ng/mL | concentration at 0 h [3, 12]: 0 ng/mL | concentration at 0 h [3, 11]: 0 ng/mL | concentration at 0 h [3, 13]: 3 ng/mL | concentration at 0 h [3, 14]: 0 ng/mL | concentration at 2 h [3, 12]: 20.3 ng/mL | concentration at 2 h [3, 11]: 9.7 ng/mL | concentration at 2 h [3, 13]: 9 ng/mL | concentration at 2 h [3, 14]: 0 ng/mL | concentration at 5 h [3, 12]: 22.7 ng/mL | concentration at 5 h [3, 11]: 12.5 ng/mL | concentration at 5 h [3, 13]: 11.9 ng/mL | concentration at 5 h [3, 14]: 4.2 ng/mL | concentration at 9 h [3, 12]: 19.2 ng/mL | concentration at 9 h [3, 11]: 9.75 ng/mL | concentration at 9 h [3, 13]: 10.3 ng/mL | concentration at 9 h [3, 14]: 3 ng/mL | concentration at 12 h [3, 12]: 11.9 ng/mL | concentration at 12 h [3, 11]: 10.7 ng/mL | concentration at 12 h [3, 13]: 11.4 ng/mL | concentration at 12 h [3, 14]: 6.2 ng/mL | concentration at 24 h [3, 12]: 5 ng/mL | concentration at 24 h [3, 11]: 3.6 ng/mL | concentration at 24 h [3, 13]: 3.55 ng/mL | concentration at 24 h [3, 14]: 2.3 ng/mL | concentration at 48 h [3, 12]: 2.5 ng/mL | concentration at 48 h [3, 11]: 1.4 ng/mL | concentration at 48 h [3, 13]: 2.5 ng/mL | concentration at 48 h [3, 14]: 2.2 ng/mL | concentration at 72 h [3, 12]: 2.2 ng/mL | concentration at 72 h [3, 13]: 1 ng/mL | concentration at 72 h [3, 14]: 0 ng/mL | concentration at 0 h [3, 15]: 0 ng/mL | concentration at 0 h [3, 16]: 0 ng/mL | concentration at 0 h [3, 17]: 0 ng/mL | concentration at 0 h [3, 18]: 0 ng/mL | concentration at 2 h [3, 15]: 26.4 ng/mL | concentration at 2 h [3, 16]: 15.3 ng/mL | concentration at 2 h [3, 17]: 11.4 ng/mL | concentration at 2 h [3, 18]: 2.3 ng/mL | concentration at 5 h [3, 15]: 42.7 ng/mL | concentration at 5 h [3, 16]: 25.5 ng/mL | concentration at 5 h [3, 17]: 30.9 ng/mL | concentration at 5 h [3, 18]: 5.5 ng/mL | concentration at 9 h [3, 15]: 38.2 ng/mL | concentration at 9 h [3, 16]: 21.6 ng/mL | concentration at 9 h [3, 17]: 22.1 ng/mL | concentration at 9 h [3, 18]: 4.2 ng/mL | concentration at 12 h [3, 15]: 20.5 ng/mL | concentration at 12 h [3, 16]: 16.3 ng/mL | concentration at 12 h [3, 17]: 18.1 ng/mL | concentration at 12 h [3, 18]: 11.1 ng/mL | concentration at 24 h [3, 15]: 12.2 ng/mL | concentration at 24 h [3, 16]: 7.72 ng/mL | concentration at 24 h [3, 17]: 6.7 ng/mL | concentration at 24 h [3, 18]: 4.3 ng/mL | concentration at 48 h [3, 15]: 5.3 ng/mL | concentration at 48 h [3, 16]: 2.15 ng/mL | concentration at 48 h [3, 17]: 3.9 ng/mL | concentration at 48 h [3, 18]: 0 ng/mL | concentration at 72 h [3, 15]: 3.2 ng/mL | concentration at 72 h [3, 16]: 2.15 ng/mL | concentration at 72 h [3, 17]: 2.7 ng/mL | concentration at 72 h [3, 18]: 0 ng/mL
